According to PubChem BioAssay (NCI):
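Results reflect a 48-hour exposure of cells in 96-well plates to compound at five concentrations. GI50 marks 50% less growth. TGI: total growth inhibition.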

What was measured:
Experiment in all cases: NCI-60 cell line screen, 48 h
SNB-19 CNS = system: SNB-19 CNS
SF-268 CNS = system: SF-268 CNS
OVCAR-4 ovarian = system: OVCAR-4 ovarian
BT-549 breast = system: BT-549 breast
UACC-62 melanoma = system: UACC-62 melanoma
HOP-62 NSCLC = system: HOP-62 NSCLC
T-47D breast = system: T-47D breast
MDA-MB-231 breast = system: MDA-MB-231 breast
CCRF-CEM leukemia = system: CCRF-CEM leukemia
HOP-92 NSCLC = system: HOP-92 NSCLC

Row | Structure (SMILES) | GI50 (SNB-19 CNS) [µM] | TGI (SNB-19 CNS) [µM] | GI50 (SF-268 CNS) [µM] | TGI (SF-268 CNS) [µM] | GI50 (OVCAR-4 ovarian) [µM] | TGI (OVCAR-4 ovarian) [µM] | GI50 (BT-549 breast) [µM] | TGI (BT-549 breast) [µM] | GI50 (UACC-62 melanoma) [µM] | TGI (UACC-62 melanoma) [µM] | GI50 (HOP-62 NSCLC) [µM] | TGI (HOP-62 NSCLC) [µM] | GI50 (T-47D breast) [µM] | TGI (T-47D breast) [µM] | GI50 (MDA-MB-231 breast) [µM] | TGI (MDA-MB-231 breast) [µM] | GI50 (CCRF-CEM leukemia) [µM] | TGI (CCRF-CEM leukemia) [µM] | GI50 (HOP-92 NSCLC) [µM] | TGI (HOP-92 NSCLC) [µM]
1 | O=c1oc2ccc(-c3ccc(F)cc3F)cc2c(=O)n1-c1ccc(Cl)c(C(F)(F)F)c1 | 3.65 | > 100 | 2.51 | 9.13 | 3.16 | > 100 | 2.06 | 5.17 | 1.55 | 4.15 | 1.93 | 4.09 | 0.585 | 4.34 | 2.25 | 6.93 | 2.63 | 8.75 | 1.58 | 5.39
2 | COc1ccc(C2C=C(c3ccc(Cl)cc3)N=C3SC=C(C)N32)c(Br)c1 (stereo not given) | 5.25 | 21.7 | 3.17 | 13.1 | 3.89 | 34.6 | 3.22 | 12.4 | 3.8 | 15.7 | 3.96 | 13.4 | 3.45 | 21.5 | 4.72 | 22.1 | 2.37 | 11.8 | 3.45 | 22
3 | CN(C)c1ccc(C(c2ccc(Cl)cc2)c2ccc(N(C)C)cc2)cc1 | – | > 100 | – | > 100 | – | – | – | > 100 | – | > 100 | – | > 100 | – | > 100 | – | > 100 | – | > 100 | – | > 100
4 | Nc1nc(=O)n([C@@H]2CS[C@H](CO)O2)cc1F | > 100 | > 100 | > 100 | > 100 | > 100 | > 100 | > 100 | > 100 | > 100 | > 100 | > 100 | > 100 | > 100 | > 100 | > 100 | > 100 | > 100 | > 100 | > 100 | > 100
5 | CC(=O)c1cc(C(=O)c2ccc3c(c2)Sc2ccccc2N3)c2c(C)cccn12 | 0.246 | > 100 | 0.915 | > 100 | 2.13 | > 100 | 0.777 | 23.8 | 0.145 | 38.1 | 0.25 | 36.9 | 0.314 | > 68.5 | 0.488 | 10.6 | 0.332 | > 100 | 0.767 | 22.6
6 | Cc1cc(Cl)ccc1Nc1nc(C(F)(F)F)ccc1C(=O)N/N=C/c1ccccc1Cl | 1.72 | 14.5 | 0.811 | 6.05 | 0.422 | > 100 | 1.12 | 5.75 | 1.43 | 5.36 | 0.836 | 2.72 | 0.824 | 4.63 | 1.13 | 5.53 | 0.341 | 4.78 | 2.14 | > 24.6
7 | COc1cc(NCCN=C(N)NC(N)=NC(C)C)c2ncccc2c1 | 9.18 | > 100 | 3.98 | > 100 | 0.0708 | 1.23 | 9.66 | 29.4 | 18.9 | 94.6 | 28.5 | > 100 | 1.44 | 5.12 | 3.17 | 21.4 | 16.4 | > 100 | 3.59 | 31.6
8 | O=C(Nc1cc(Oc2cc(F)c(NC(=O)C3(C(=O)Nc4ccc(F)cc4)CC3)cc2F)ccn1)C1CC1 | 3.75 | > 100 | 3.09 | > 28.5 | 3.93 | > 30.8 | 3.07 | 7.09 | 1.19 | 5.6 | 2.76 | 8.71 | 2.33 | 6.61 | 2.43 | > 100 | 2.39 | 7.59 | 0.59 | 5.86
9 | O=S(=O)(Nc1ccc(F)c(Cl)c1)c1ccc(-c2cnc(C3CC3)o2)cc1 | 0.389 | 13.7 | 1.24 | 11.3 | 1.2 | 11.7 | 0.577 | 9.01 | 0.183 | 5.51 | 0.453 | 14.4 | 0.361 | 13.1 | 0.727 | 11 | 0.318 | 28.9 | 0.367 | 3.94
10 | Cc1ccc(NCCN(C)C)c2c(=O)c3ccccc3sc12 | 2.24 | 6.63 | 1.97 | 4.74 | 2.67 | 8.76 | 3.89 | 15.5 | 1.69 | 3.29 | 1.55 | 3.11 | 1.82 | 4.96 | 1.69 | 3.73 | 2.12 | 6.18 | 1.04 | 4.41
11 | C#COc1cccc(Nc2ncnc3cc(NC(=O)[C@H](C)Cl)ccc23)c1 | 4.72 | > 62.5 | 4.3 | > 62.5 | – | – | 3.22 | > 62.5 | 2.96 | > 62.5 | 6.35 | > 62.5 | 19.3 | > 62.5 | 3.75 | > 62.5 | 2.41 | > 62.5 | > 62.5 | > 62.5
12 | CCOC(=O)c1ccc2c(c1)[n+](=O)c(C(C)=O)c(C(F)(F)F)n2[O-] | 1.73 | 4.18 | 1.49 | 2.93 | 1.36 | 3.22 | 1.54 | 3.21 | 1.49 | 3.46 | 1.66 | 3.54 | 1.29 | 3.06 | 1.75 | 3.62 | 1.68 | 4.59 | 1.4 | 2.86
13 | Cc1cn(-c2ccc(S(C)(=O)=O)cc2)c(-c2ccc(Cl)cc2)n1 | > 100 | > 100 | > 100 | > 100 | > 100 | > 100 | > 100 | > 100 | > 100 | > 100 | > 100 | > 100 | > 100 | > 100 | > 100 | > 100 | > 100 | > 100 | > 100 | > 100
14 | CCOC(=O)c1cnn2c3ccccc3n(S(=O)(=O)c3ccc(OC)cc3)c12 | 0.712 | > 100 | 2.33 | > 100 | 1.58 | > 100 | 0.34 | 13.1 | 0.574 | > 100 | 0.523 | > 100 | 13.8 | > 100 | 0.889 | > 100 | 0.257 | > 100 | 0.67 | 16
15 | Cc1ccc(NC(=O)/C(=N/N(C)C)C(C2OC(=O)c3ccccc32)[N+](=O)[O-])cc1 (stereo not given) | – | – | – | > 100 | – | > 100 | – | > 100 | – | > 100 | – | > 100 | – | > 100 | – | > 100 | – | > 100 | – | > 100
16 | C[C@@H]1COCCN1c1cc(C2([S@@](C)(=N)=O)CC2)nc(-c2ccnc3[nH]ccc23)n1 | 7.72 | > 100 | 9.66 | > 100 | 3.41 | 63.9 | 2.68 | 23.7 | 4.29 | 36.6 | 3.74 | 63.6 | 3.43 | 33.4 | 8.18 | > 100 | 2.55 | > 42.5 | 1.56 | 15.4
17 | COc1cccc(/C(C)=N/NC(=O)CSc2nc3ccccc3c(=O)n2CCc2ccc(S(N)(=O)=O)cc2)c1 | 2.89 | 7.87 | 2.68 | 7.32 | 1.85 | 4.28 | 2.27 | 40.9 | 8.32 | 33.5 | 2.81 | 9.63 | 6.44 | 29.3 | 2.23 | 5.06 | 5.31 | > 100 | 1.95 | 11.9
18 | Nc1ccccc1C#C/C=C\C#Cc1c(F)c(F)c(F)c(F)c1F | 26 | 55.4 | 14.1 | 50.9 | 20.2 | 96 | 10.3 | 28.6 | 12.5 | 26 | 12.7 | 27.8 | 23 | 61.6 | 2.76 | 16.7 | 0.385 | 14.2 | 19.5 | 41.4
19 | COc1cc2c(=O)n(CCN(C)C)c3c4cc5c(cc4ccc3c2cc1OC)OCO5 | 0.198 | 8.41 | 0.222 | – | 0.445 | 5.53 | 0.413 | 5.27 | 0.115 | 0.435 | 0.193 | 1.88 | 0.111 | 0.486 | 0.824 | 3.53 | 0.146 | > 10.9 | 0.505 | 2.6
